Reference: publication PMC4474554 (PLoS ONE, 2015)
“And” between values parts separate entries of the source, which are not always exact repeats. Equal values may be shown once. Read-outs that look alike come from different tables or passages of the source.

Tests used:
NCI-H1648 = test: MTS assay, NCI-H1648
NCI-H1395 = test: MTS assay, NCI-H1395
c-Abl = tested on: c-Abl; set-up: method as in earlier work; details: updated data; cited from earlier work
NCI-H1299 = test: MTS assay, NCI-H1299
NCI-H1975 = test: MTS assay, NCI-H1975
NCI-H1993 = test: MTS assay, NCI-H1993
NCI-H838 = test: MTS assay, NCI-H838
SK-BR-3 = test: MTS assay, SK-BR-3
JAK-2 = tested on: JAK-2; set-up: method as in earlier work; details: updated data; cited from earlier work
FGFR-3 (K650E) = tested on: FGFR-3 (K650E); set-up: method as in earlier work; details: updated data; cited from earlier work
FGFR-1 = details: updated data; cited from earlier work
Pyk2 = tested on: Pyk2; set-up: method as in earlier work; details: updated data; cited from earlier work
Tek = tested on: Tek; set-up: method as in earlier work; details: updated data; cited from earlier work
KDR = tested on: KDR; set-up: method as in earlier work; details: updated data; cited from earlier work
RPC-9 = test: MTS assay, RPC-9
[1] = Body weight / side effects in xenograft mice; format: in vivo, BALB/c-nu/nu female nude mice; details: 14 days, nude mice with xenografts
Experimental: In this experiment, we used BALB/c-nu/nu female nude mice at 4–6 weeks of age that were purchased from Charles River Laboratories Japan, Inc (Yokohama, Japan). They were maintained under specific-pathogen-free conditions in accordance with the guidelines of the Animal Care and Use Committee at Okayama University. […] Every three days, body weight of the mice and the major axis and minor axis of each tumor were measured and calculated tumor volume using the following formula; (major axis) × (minor axis)^2 × 1/2 [37, 38]. For the 14 days, tumor volume, tumor growth rate and the body weight were analyzed as an average of the each group.

NCI-H1819 = test: MTS assay, NCI-H1819
FAK = tested on: FAK; set-up: method as in earlier work; details: updated data; cited from earlier work
ALK = details: updated data; cited from earlier work
Calu-3 = test: MTS assay, Calu-3
NCI-H1666 = test: MTS assay, NCI-H1666
ZAP-70 = tested on: ZAP-70; set-up: method as in earlier work; details: updated data; cited from earlier work
HER2 = details: updated data; cited from earlier work
Lck = tested on: Lck; set-up: method as in earlier work; details: updated data; cited from earlier work
BRAF (V600E) = tested on: BRAF (V600E); set-up: method as in earlier work; details: updated data; cited from earlier work
NCI-H3255 = test: MTS assay, NCI-H3255
PDK1 = tested on: PDK1; set-up: method as in earlier work; details: updated data; cited from earlier work
PKA = tested on: PKA; set-up: method as in earlier work; details: updated data; cited from earlier work

CNC(=O)c1ccccc1Nc1nc(Nc2ccc(N3CCOCC3)cc2OC)ncc1Cl [TAE226]
IC50 (NCI-H1648; read-out: IC50 (μM) (mean ± SD), NCI-H1648, HER2 amplification, MTS, TAE226 48 hours, gefitinib 72 hours): 1.7 ± 0.07 µM
IC50 (NCI-H1648; read-out: each IC50, NCI-H1648, independent MTS assays): 1.7 µM and 1.8 µM
IC50 (NCI-H1648; read-out: mean IC50, NCI-H1648, mean of independent MTS assays): 1.7 µM
IC50 (c-Abl): 5900 nM
IC50 (NCI-H1299; read-out: IC50 (μM) (mean ± SD), NCI-H1299, no alterations, MTS, TAE226 48 hours, gefitinib 72 hours): 2.8 ± 0.26 µM
IC50 (NCI-H1299; read-out: each IC50, NCI-H1299, independent MTS assays): 3.1 µM and 3 µM and 2.7 µM and 2.4 µM
IC50 (NCI-H1975; read-out: IC50 (μM) (mean ± SD), NCI-H1975, EGFR Exon 21 (L858R) + T790M, MTS, TAE226 48 hours, gefitinib 72 hours): 0.17 ± 0.02 µM
IC50 (NCI-H1993; read-out: IC50 (μM) (mean ± SD), NCI-H1993, MET amplification, MTS, TAE226 48 hours, gefitinib 72 hours): 0.89 ± 0.001 µM
IC50 (NCI-H1993; read-out: each IC50, NCI-H1993, independent MTS assays): 0.89 µM
IC50 (NCI-H1993; read-out: mean IC50, NCI-H1993, mean of independent MTS assays): 0.89 µM
IC50 (NCI-H838; read-out: IC50 (μM) (mean ± SD), NCI-H838, no alterations, MTS, TAE226 48 hours, gefitinib 72 hours): 6.2 ± 0.02 µM
IC50 (NCI-H838; read-out: each IC50, NCI-H838, independent MTS assays): 6.3 µM and 6.2 µM
IC50 (NCI-H838; read-out: mean IC50, NCI-H838, mean of independent MTS assays): 6.2 µM
IC50 (SK-BR-3; read-out: IC50 (μM) (mean ± SD), SK-BR-3 (breast cancer), HER2 amplification, MTS, TAE226 48 hours): 35.1 ± 0.53 µM
IC50 (SK-BR-3; read-out: each IC50, SK-BR-3, independent MTS assays): 34.6 µM and 35.6 µM
IC50 (JAK-2): 840 nM
IC50 (Pyk2): 40 nM
IC50 (Tek): 580 nM
IC50 (RPC-9; read-out: IC50 (μM) (mean ± SD), RPC-9, EGFR Exon 19 del (E746-A750) + T790M, MTS, TAE226 48 hours, gefitinib 72 hours): 0.31 ± 0.03 µM
IC50 (RPC-9; read-out: each IC50, RPC-9, independent MTS assays): 0.35 µM and 0.33 µM and 0.28 µM and 0.27 µM
obvious side effects, including the loss of body weight ([1]; 30mg/kg or 60mg/kg oral): did not occur
body weight ([1]; 90 mg/kg oral): loss of body weight was observed
IC50 (NCI-H1819; read-out: IC50 (μM) (mean ± SD), NCI-H1819, HER2 amplification, MTS, TAE226 48 hours, gefitinib 72 hours): 3.8 ± 0.4 µM
IC50 (NCI-H1819; read-out: each IC50, NCI-H1819, independent MTS assays): 4 µM and 3.2 µM and 4.1 µM
IC50 (FAK): 5.5 nM
IC50 (Calu-3; read-out: IC50 (μM) (mean ± SD), Calu-3, HER2 amplification, MTS, TAE226 48 hours, gefitinib 72 hours): 4.1 ± 0.37 µM
IC50 (Calu-3; read-out: each IC50, Calu-3, independent MTS assays): 4.5 µM and 3.8 µM
IC50 (NCI-H1666; read-out: IC50 (μM) (mean ± SD), NCI-H1666, BRAF Exon 11 (G466V), MTS, TAE226 48 hours, gefitinib 72 hours): 0.42 ± 0.08 µM
IC50 (NCI-H1666; read-out: each IC50, NCI-H1666, independent MTS assays): 0.5 µM and 0.34 µM
IC50 (ZAP-70): 7700 nM
IC50 (HER2): 950 nM
IC50 (BRAF (V600E)): 1400 nM
IC50 (NCI-H3255; read-out: IC50 (μM) (mean ± SD), NCI-H3255, EGFR Exon 21 (L858R), MTS, TAE226 48 hours, gefitinib 72 hours): 0.12 ± 0.005 µM
IC50 (NCI-H3255; read-out: each IC50, NCI-H3255, independent MTS assays): 0.12 µM and 0.13 µM
IC50 (NCI-H3255; read-out: mean IC50, NCI-H3255, mean of independent MTS assays): 0.12 µM
IC50 (PDK1): > 10000 nM
IC50 (PKA): > 10000 nM
